Source: patent US20260263482A1, “COMPOSITION AND METHOD FOR INDUCING LUTEOLYSIS” (WELFARE CONCEPTS LIMITED, priority 2023, published 2026)
Read-outs that look alike come from different tables or passages of the source.

Experiments:
[1] = Titration of cloprostenol sodium with calcium or zinc salts, cloprostenol in supernatant by HPLC; assay type: physicochemical
Procedure: Water-insoluble salts of cloprostenol were investigated as a means of prolonging release of cloprostenol after administration. Solutions of cloprostenol sodium were titrated with calcium chloride, zinc chloride or zinc acetate solutions. The resulting mixtures were vortexed, left to stand overnight then observed for precipitation possibly due to formation of an insoluble salt. Samples with a visible precipitate were centrifuged at 15000 rpm for 5 min and the supernatant was then removed for analysis of cloprostenol by validated HPLC.

[2] = physchem; assay type: physicochemical; details: for solubility: water, water solubility
Procedure: Water-in-oil (w/o) emulsions of cloprostenol sodium were investigated for use as sustained release compositions of cloprostenol. […] In aqueous solution cloprostenol sodium micellises at concentrations around 5-10 mg/ml. The minimum quantity of water to dissolve a 3 mg dose of cloprostenol (as the sodium salt) is around 0.1 ml. Accordingly, a target volume of 2 ml of water-in-oil emulsion requires a minimum proportion of around 5% water to incorporate a 3 mg dose of cloprostenol.

[3] = Authors' study / animal trial: half-life from terminal slope of plasma concentration versus time profile; assay type: in vivo; details: cattle, intramuscular
Procedure: Literature has reported a half-life for cloprostenol of around 90 minutes, with a maximum concentration reached at around 10 to 20 minutes after administration.
The inventors have also used various models to describe the absorption kinetics of cloprostenol. The most recent model was to describe the release from SAIB formulations as occurring as a burst of some percentage of the dose followed by a rate of release proportional to the square root of time. In an animal trial, the inventors calculated the terminal slope of the plasma concentration versus time profile. If absorption is very rapid—ie. as from standard cloprostenol injection, Ovuprost™, this terminal slope is related to the elimination half-life of the cloprostenol. The inventors found this half-life to be 1 hour. The literature reports the elimination half-life of cloprostenol to be 1.5-3 hours. If absorption is slow, the terminal slope relates to the absorption rate of the cloprostenol from the injection.
In cattle, the conventional intramuscular injected dose of natural PGF2α is 25 mg whereas the intramuscular injected dose of cloprostenol in 0.5 mg. PGF2α has a half-life of about 8-10 minutes whereas the cloprostenol half-life is from around 1 hour as determined by the authors' study and reported elsewhere as 1.5-3 hours.

[4] = literature; cited from earlier work
[5] = Chemical stability of cloprostenol in ethanol and Transcutol; assay type: physicochemical; details: 40° C., 4 days, HPLC
Procedure: The chemical stability of cloprostenol was tested in ethanol and Transcutol. A cloprostenol solution (1 mg/ml) was prepared in each solvent and stored in at 40° C. for 4 days. The solutions were then removed and injected into HPLC for cloprostenol quantification and the chromatogram inspected for the formation of new (degradation) peaks. Cloprostenol in solution in ethanol and Transcutol at 40° C. was stable for the 4 days tested. […] There were no degradation peaks in the chromatograms.

SMILES: O=C([O-])CCCC=CCC1C(O)CC(O)C1C=CC(O)COc1cccc(Cl)c1.O=C([O-])CCCC=CCC1C(O)CC(O)C1C=CC(O)COc1cccc(Cl)c1.[Ca+2] (stereo not drawn) [calcium cloprostenol]
- solubility of the calcium salt ([1]; titration with calcium chloride, mixtures remained apparently clear): good solubility

SMILES: O=C(O)CCC/C=C\CC1C(O)CC(O)C1/C=C/C(O)COc1cccc(Cl)c1 (stereo not drawn) [cloprostenol sodium]
- concentration at which it micellises in aqueous solution [2]: 5000 to 10000 µg/mL
- solubility [2]: > 10 mg/mL
- solubility ([2]; estimated): ~35 mg/mL

SMILES: O=C(O)CCC/C=C\CC1C(O)CC(O)C1/C=C/C(O)COc1cccc(Cl)c1 (stereo not drawn) [cloprostenol]
- half-life ([3]; Holstein, 0.5 mg, very rapid absorption, standard cloprostenol injection, read-out: half-life (terminal slope, elimination) (converted)): ~1 h
- half-life ([3]; 0.5 mg cloprostenol as the sodium salt in a fast-release aqueous composition, read-out: estimated half-life of cloprostenol in plasma): 0.25 to 1 h
- elimination half-life of cloprostenol [4]: 1.5 to 3 h
- half-life for cloprostenol [4]: around 90 minutes
- cloprostenol still contained in supernatant at best yield of precipitate ([1]; zinc acetate): around 50%
- cloprostenol still contained in supernatant at best yield of precipitate ([1]; zinc chloride as counter cation): around 74%
- measured drug content ([5]; 1 mg/ml in Transcutol): 102%
- measured drug content ([5]; 1 mg/ml in ethanol): 101%
